# According to ChEMBL document CHEMBL5233260, “Diverse chemical space of indoleamine-2,3-dioxygenase 1 (Ido1) inhibitors” (Eur J Med Chem, 2021):
# Several values for one entry are separate records, joined by “and”; a condition that tells them apart may be missing. Equal values may be shown once.
# Target: T1, Indoleamine 2,3-dioxygenase 1 (Homo sapiens, UniProt P14902)
# Assay: Inhibition of human recombinant IDO1 using L-tryptophan as substrate incubated for 10 mins by absorbance based analysis
# Target sequence in this assay (P14902 whole entry): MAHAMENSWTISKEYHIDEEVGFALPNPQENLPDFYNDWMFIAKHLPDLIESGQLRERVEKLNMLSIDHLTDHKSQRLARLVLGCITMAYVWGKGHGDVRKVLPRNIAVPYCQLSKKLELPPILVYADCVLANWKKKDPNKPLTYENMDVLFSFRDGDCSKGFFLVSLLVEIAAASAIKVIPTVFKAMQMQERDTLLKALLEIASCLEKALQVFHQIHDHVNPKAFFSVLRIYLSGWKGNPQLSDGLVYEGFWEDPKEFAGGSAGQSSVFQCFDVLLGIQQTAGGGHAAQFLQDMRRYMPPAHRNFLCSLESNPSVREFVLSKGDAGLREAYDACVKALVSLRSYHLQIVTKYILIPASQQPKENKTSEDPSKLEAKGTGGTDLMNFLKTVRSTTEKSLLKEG
row,Structure (SMILES),IC50 [nM]
1,COc1nsc2c1C(=O)c1c(O)cccc1C2=O,71

# Target: T1, Indoleamine 2,3-dioxygenase 1
# Assay: Inhibition of IDO1 (unknown origin) at 1 uM relative to control
# Target sequence in this assay (P14902 whole entry, looked up): as the sequence (P14902 whole entry) above
row,Structure (SMILES),inhibition [%]
1,N#Cc1ccc(Cc2cn(Cc3cnc4scc(-c5ccc(Br)cc5)n34)nn2)cc1,75
2,O=C(NCc1cnc2scc(-c3ccc(Br)cc3)n12)n1cc(C2CC2)nn1,70

# Target: T1, Indoleamine 2,3-dioxygenase 1
# Assay: Binding affinity to IDO1 (unknown origin) assessed as inhibition constant
# Target sequence in this assay (P14902 whole entry): as above
row,Structure (SMILES),Ki [nM]
1,CC12CCCc3coc(c31)C(=O)c1cc3c(cc12)C(=O)C1C(NCCS1(=O)=O)C3=O (configuration not stated),25
2,NC(Cc1coc2ccccc12)C(=O)O (configuration not stated),70000
3,CCc1c(C)cc2c(c1O)C(=O)C1=C(C2=O)C(C)(C)OC1(O)C(=O)OC (configuration not stated),210
4,NC(Cc1csc2ccccc12)C(=O)O (configuration not stated),7000
5,CC12CCCc3coc(c31)C(=O)c1cc3c(cc12)C(=O)C1NCCS(=O)(=O)C1C3=O (configuration not stated),86
6,COC(=O)/C1=C/c2c([nH]c3ccccc23)/C(C(=O)OC)=C\c2c1[nH]c1ccccc21 [CAULERPIN],2000
7,CCc1cc2c(cc1C)C(=O)C1=C(C2=O)C(OC)(C(=O)OC)OC1(C)C (configuration not stated),140

# Target: T1, Indoleamine 2,3-dioxygenase 1
# Assay: Inhibition of IDO1 (unknown origin)
# Target sequence in this assay (P14902 whole entry): as above
row,Structure (SMILES),IC50 [nM]
1,Brc1cc(Nc2ccc3nonc3c2)c2cn[nH]c2c1,74000
2,COC1=CC(=O)c2c(O)c3c(c4c2[C@]12CC(=O)C[C@H]2[C@@]1(C[C@H](O)[C@H](O)CO1)O4)C[C@](C)(O)[C@H](O)C3,32300
3,CNC(=O)[C@H]1[C@@H](OC)C2(O)c3ccccc3NC(=O)[C@@]2(C(=O)N[C@@H](CCC(=O)OC)C(=O)C=C(C)C)N1C (some centres not stated),10100
4,COC1=C(OC)C(=O)C(CCC(C)C)=C(C)C1=O,2800
5,COC1=C(OC)C(=O)C(Nc2ccccc2)=CC1=O,600
6,Nc1oc2cnccc2c1Nc1ccc(F)c(Cl)c1,< 200
7,COC1=C(OC)C(=O)C(Nc2ccc(Cl)cc2)=CC1=O,270
8,COc1c(C(C)=O)c(C)cc2cc3c(c(O)c12)C(=O)C(C)(C)C(=O)C3(C)C,1180
9,C=C1CC[C@@H]2[C@](C)(CO)[C@H](O)CC[C@@]2(C)[C@@H]1C/C=C1/C(=O)OC[C@H]1O [ANDROGRAPHOLIDE],160000
10,CCc1c(OC)cc2c(c1O)C(=O)C[C@@H](OC)[C@@H]2O,6360
11,O=C(Cc1ccccc1)Nc1ccc(CCOc2ccccc2-c2cnc[nH]2)cc1,< 1000
12,CS[C@@]1(C)C(=O)N2[C@H]3N(c4ccc5oc6cc(=O)c(N)c(C(=O)O)c-6nc5c4C(=O)O)c4ccccc4[C@@]3(c3c[nH]c4ccccc34)[C@H](O)[C@]2(SC)C(=O)N1C,2000
13,COC1=C(OC)C(=O)C(Nc2cccc(NC(=O)Nc3ccccc3)c2)=C(C)C1=O,400
14,COC1=C(OC)C(=O)C(Nc2ccccc2)=C(C)C1=O,700
15,COC(=O)[C@H]1CCCN1C[C@@H](O)c1c(OC)cc2c(c1O)C(=O)c1cc(O)c(C)cc1C2=O,500

# Target: T1, Indoleamine 2,3-dioxygenase 1
# Assay: Inhibition of human IDO1
# Target sequence in this assay (P14902 whole entry): as above
row,Structure (SMILES),IC50 [nM]
1,N#Cc1ccc(NC(=O)Nc2ccc(S(=O)(=O)NNc3ccc(Br)cc3)cc2)cc1,199

# Target: T2, Indoleamine 2,3-dioxygenase 1 (Mus musculus, UniProt P28776)
# T2 sequence (P28776 whole entry): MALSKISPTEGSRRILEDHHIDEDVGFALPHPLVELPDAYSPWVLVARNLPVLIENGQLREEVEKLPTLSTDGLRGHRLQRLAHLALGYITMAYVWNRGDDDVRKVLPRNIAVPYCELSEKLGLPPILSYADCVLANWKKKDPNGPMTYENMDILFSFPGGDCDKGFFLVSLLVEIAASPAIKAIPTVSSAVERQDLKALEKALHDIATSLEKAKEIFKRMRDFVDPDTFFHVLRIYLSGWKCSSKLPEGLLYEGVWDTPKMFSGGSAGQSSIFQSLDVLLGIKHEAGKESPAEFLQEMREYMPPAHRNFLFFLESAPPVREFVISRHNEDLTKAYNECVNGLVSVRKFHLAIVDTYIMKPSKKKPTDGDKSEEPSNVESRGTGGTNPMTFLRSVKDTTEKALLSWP
# Assay: Inhibition of IDO1 in mouse LLTC cell line
# Type: cell-based
row,Structure (SMILES),IC50 [nM]
1,COc1ccc2c(c1)C(=O)C1=C(C2=O)[C@@H](C)O[C@@H](CC(=O)O)C1,800
2,COc1cccc2c1C(=O)C1=C(C[C@H](Cn3cc(-c4ccccc4)nn3)O[C@@H]1C)C2=O,6000

# Target: T1, Indoleamine 2,3-dioxygenase 1
# Assay: Inhibition of human IDO1 expressed in Escherichia coli using L-tryptophan as substrate incubated for 30 mins by methylene blue dye based microplate reader analysis
# Target sequence in this assay (P14902 whole entry): as the sequence (P14902 whole entry) above
row,Structure (SMILES),IC50 [nM]
1,COC1=CC(=O)c2c(c(CO)c(C)n2C)C1=O,10000
2,COC1=CC(=O)c2sc(C)c(CO)c2C1=O,1000
3,COC(=O)c1c(C)oc2c1C(=O)C(OC)=CC2=O,7200
4,COC1=CC(=O)c2c(c(CO)nn2C)C1=O,1000
5,COC1=CC(=O)c2c(oc(C)c2CO)C1=O,500
6,COC1=CC(=O)c2c(nc(COc3ccc([N+](=O)[O-])cc3)n2C)C1=O,100

# Target: T1, Indoleamine 2,3-dioxygenase 1
# Assay: Inhibition of human IDO1 using L-tryptophan as substrate by methylene blue dye based spectrometric method
# Target sequence in this assay (P14902 whole entry): as above
row,Structure (SMILES),IC50 [nM]
1,c1ccc(-c2[nH]nc3ccccc23)cc1,19600
2,Cc1ccc(S(=O)(=O)NNC(=O)c2n[nH]c3ccccc23)cc1,17000
3,c1cncc(-c2n[nH]c3ccccc23)c1,9520
4,Clc1ccc(-c2n[nH]c3ccccc23)cc1Cl,5460
5,O=C(NNc1ccccc1)c1n[nH]c2ccccc12,720

# Target: T1, Indoleamine 2,3-dioxygenase 1
# Assay: Inhibition of IDO1 in human MDA-MB-231 cells
# Type: cell-based
row,Structure (SMILES),IC50 [nM]
1,NS(=O)(=O)NCCNC(=O)c1n[nH]nc1/C(=N/O)Nc1ccc(F)c(Br)c1,28

# Target: T1, Indoleamine 2,3-dioxygenase 1
# Assay: Inhibition of IDO1 in human HeLa cells
# Type: cell-based
row,Structure (SMILES),EC50 [nM]
1,N#Cc1ccc(NC(=O)Nc2ccc(S(=O)(=O)NNc3ccc(Br)cc3)cc2)cc1,51

# Target: T1, Indoleamine 2,3-dioxygenase 1
# Assay: Inhibition of IDO1 in human A549 cells by ELISA assay
# Type: cell-based
row,Structure (SMILES),IC50 [nM]
1,CC(=O)NCCc1c(C(=O)c2ccccc2[N+](=O)[O-])[nH]c2ccc(Cl)cc12,740

# Target: T1, Indoleamine 2,3-dioxygenase 1
# Assay: Inhibition of human IDO1 using L-tryptophan as substrate incubated for 1 hr by absorbance based analysis
row,Structure (SMILES),IC50 [nM]
1,O=C(NC(c1cccc(Br)c1)n1ccnc1)c1ccc([N+](=O)[O-])cc1 (configuration not stated),810

# Target: T1, Indoleamine 2,3-dioxygenase 1
# Assay: Inhibition of IDO1 in human HeLa cells assessed as inhibition of kynurenine production incubated for 30 mins by microplate reader based analysis
# Type: cell-based
row,Structure (SMILES),IC50 [nM]
1,Cc1cc(Cl)nc2onc(N)c12,< 1000
2,CCN(c1ncc(C2(C(=O)O)CCC2)cc1Nc1ccc(Cl)cc1)C1CCOCC1,100

# Target: T1, Indoleamine 2,3-dioxygenase 1
# Assay: Inhibition of IDO1 (unknown origin) at 1 mM relative to control
# Target sequence in this assay (P14902 whole entry, looked up): as the sequence (P14902 whole entry) above
row,Structure (SMILES),inhibition [%]
1,O=C(O)C[C@H]1CNC(=O)c2cc(Br)c(Br)n21,30

# Target: T1, Indoleamine 2,3-dioxygenase 1
# Assay: Inhibition of IDO1 (unknown origin) at 10 uM relative to control
# Target sequence in this assay (P14902 whole entry, looked up): as the sequence (P14902 whole entry) above
row,Structure (SMILES),inhibition [%]
1,O[C@H]1CCCC[C@@H]1CNc1cc(Br)cc2[nH]ncc12,> 70

# Target: T1, Indoleamine 2,3-dioxygenase 1
# Assay: Inhibition of human recombinant N-terminal his6-tagged IDO1 expressed in Escherichia coli BL21 using L-tryptophan as substrate incubated for 1 hr by methylene blue dye based UV-Vis spectrophotometer analysis
row,Structure (SMILES),IC50
1,NS(=O)(=O)NCCNC(=O)c1n[nH]nc1/C(=N/O)Nc1ccc(F)c(Br)c1,92 nM and 28 nM

# Target: T1, Indoleamine 2,3-dioxygenase 1
# Assay: Inhibition of IDO1 in HEK293 cells at 20 uM incubated for 24 hrs by LC-MS/MS analysis relative to control
# Type: cell-based
# Target sequence in this assay (P14902 whole entry, looked up): as the sequence (P14902 whole entry) above
row,Structure (SMILES),inhibition [%]
1,O/N=C(\Nc1ccc(F)c(Br)c1)c1cccc2cn[nH]c12,80

# Target: T1, Indoleamine 2,3-dioxygenase 1
# Assay: Inhibition of human IDO1 incubated for 30 mins by microplate reader based analysis
row,Structure (SMILES),IC50 [nM]
1,COc1cc(O)c2c(c1)C(=O)C1=C(C2=O)[C@@H](C)O[C@@H](C)C1,5000

# Target: T2, Indoleamine 2,3-dioxygenase 1
# Assay: Inhibition of mouse IDO1 using L-tryptophan as substrate by methylene blue dye based analysis
row,Structure (SMILES),IC50 [nM]
1,COc1ccc(Nc2ccc3c[n+]4ccccc4cc3c2)cc1,> 66000
2,Clc1ccc(Nc2ccc3c[n+]4ccccc4cc3c2)cc1,510
3,c1ccc(Nc2ccc3c[n+]4ccccc4cc3c2)cc1,560
4,Cc1ccc(Nc2ccc3c[n+]4ccccc4cc3c2)cc1,17000
5,CN(C)c1ccc(Nc2ccc3c[n+]4ccccc4cc3c2)cc1,> 50000
6,Clc1cccc(Nc2ccc3c[n+]4ccccc4cc3c2)c1,39600
7,Fc1ccc(Nc2ccc3c[n+]4ccccc4cc3c2)cc1,530
